Measured values from PubChem BioAssay (NCI).
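Exposure lasted 48 hours, with cells grown in 96-well plates and compounds tested at five concentrations. GI50 = concentration required for 50% inhibition of growth. At the TGI there is no net growth.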

Tests used:
Experiment in all cases: NCI-60 cell line screen, 48 h
[1] = system: LOX IMVI melanoma
[2] = system: OVCAR-8 ovarian
[3] = system: RPMI-8226 leukemia
[4] = system: RXF 393 renal
[5] = system: SF-295 CNS
[6] = system: SK-MEL-28 melanoma
[7] = system: TK-10 renal
[8] = system: HL-60(TB) leukemia

SMILES | TGI [1] [µM] | TGI [2] [µM] | TGI [3] [µM] | TGI [4] [µM] | TGI [5] [µM] | TGI [6] [µM] | TGI [7] [µM] | GI50 [8] [µM] | TGI [8] [µM] | GI50 [1] [µM] | GI50 [2] [µM] | GI50 [3] [µM] | GI50 [4] [µM] | GI50 [5] [µM] | GI50 [6] [µM] | GI50 [7] [µM]
CCCN(CCCCC(NC(C)=O)C(=O)NCc1ccccc1)C(=O)NC (stereo unspecified) | > 100 | > 100 | > 100 | > 100 | > 100 | > 100 | > 100 |  |  |  |  |  |  |  |  | 
Cn1nnnc1[N-]Cc1ccccc1.[Au+].c1ccc([PH+](c2ccccc2)c2ccccc2)cc1 | 8.55 | 10.1 | 4.37 | 2.68 | 22.8 | 7.23 | 5.02 | 0.509 | 1.45 | 2.53 | 3.13 | 1.23 | 1.29 | 4.45 | 2.53 | 2.46
COC(=O)/C(=N/NC(C)(C)C)C(C(=O)C=C(C)C)C(=O)C(=O)Nc1ccc(Cl)cc1C (stereo unspecified) |  | > 100 | > 100 |  | > 100 | > 100 | > 100 |  | > 100 |  |  |  |  |  |  | 
CCOC(=O)c1c2ccc(/C=C/C(=O)OC)ccc-2c(C(=O)OCC)c1N | > 100 |  |  | > 100 | > 100 | 8.42 | > 100 |  | > 100 |  |  |  |  |  |  | 
CC(SC1=CC(=O)c2c(O)ccc(O)c2C1=O)C(=O)O (stereo unspecified) | > 57.7 | > 89.3 | > 96.2 | > 64.4 | > 100 | > 80.1 | > 82.2 |  | > 41.9 |  |  |  |  |  |  | 
CN(C)CCNC(=O)c1cc([N+](=O)[O-])cc2ccc(-c3ccccc3)nc12 | 30.5 | > 39.2 | 70.2 | 22.8 | > 57.3 | 27.4 | 95.5 |  | 21.7 |  |  |  |  |  |  | 
O=C1c2cccc3cc([N+](=O)[O-])cc(c23)C(=O)N1CCCN1CCN(CCCN2C(=O)c3cccc4cc([N+](=O)[O-])cc(c34)C2=O)CC1 |  | > 100 | > 100 | 1.76 | 12.4 |  | 16 |  | 12.8 |  |  |  |  |  |  | 
[Cl][Sn]([c]1ccccc1)[c]1ccccc1 | 13.5 | 17.2 | 6.14 | 3.24 | 35.2 | 3.62 | 8.57 | 2.29 | 6.46 | 3.81 | 11.5 | 2.09 | 1.55 | 19.2 | 1.58 | 3.17
Cn1cc(NC(=O)c2cc(NC(=O)CCCCCC(=O)Nc3cc(C(=O)Nc4cc(C(=O)NCCC(=N)N)n(C)c4)n(C)c3)cn2C)cc1C(=O)NCCC(=N)N | > 100 | > 100 |  | > 100 | > 100 | > 100 | > 100 |  | > 100 |  |  |  |  |  |  | 
CCCN(CCC)c1c([N+](=O)[O-])cc(S(N)(=O)=O)cc1[N+](=O)[O-] | 31.6 | 35.1 | 76.4 |  | 32.3 | 36.3 |  |  |  |  |  |  |  |  |  | 
c1cc2c(cnc3cscc32)s1 | > 100 | > 100 | > 100 | > 100 | > 100 | > 100 | > 100 |  | > 100 |  |  |  |  |  |  | 
CC(C)(C)C([O-])=C1C(=O)c2ccccc2C1=O.CC(C)(C)C([O-])=C1C(=O)c2ccccc2C1=O.CC[O-].CC[O-].[Ti+4] | > 100 | 90.1 |  | 90.3 | > 100 | > 100 |  | 27.1 | 67 | 40.4 | 29.3 |  | 10.8 | 28.3 | > 100 | 
Cc1c2ncccc2c(C)c2c1[nH]c1ccccc12 | 20.8 | 27.8 | 26.2 | 25.9 | 21.9 | 28.9 | 31.7 |  |  |  |  |  |  |  |  | 
Cc1ccc(C)c(NC(=O)/C(=N\NC(N)=S)C(C#N)c2ccccc2)c1 (stereo unspecified) |  | > 100 | > 100 |  | > 100 | > 100 | > 100 |  | > 100 |  |  |  |  |  |  | 
COc1cc2ccc3c4cc(OC)c(OCc5ccccc5)cc4cnc3c2cc1OC |  | > 100 | > 100 |  | > 100 | > 100 | > 100 |  |  |  |  |  |  |  |  | 
CCCCCCCCCCCCC(SCCNC(=O)CCNC(=O)C(O)C(C)(C)COP(=O)(O)OP(=O)(O)OCC1OC(n2cnc3c(N)ncnc32)C(O)C1OP(=O)(O)O)C(=O)NCC(N)=O (stereo unspecified) | > 100 | > 100 |  | > 100 | > 100 | > 100 | > 100 |  | > 100 |  |  |  |  |  |  | 
Cc1ccc(S(=O)(=O)ON/N=C2/C3OC3[C@@H]3CCCC[C@H]23)cc1 (stereo partly specified) |  | > 100 | > 100 | > 100 | > 100 | > 100 | > 100 |  | > 100 |  |  |  |  |  |  | 
c1c[nH]c(Cc2ncc(Cc3cnc[nH]3)[nH]2)n1 | 96.2 | > 100 | > 100 |  | > 100 | > 100 | > 100 |  | 21.5 |  |  |  |  |  |  | 
CC(C)(C)N=CN1CCC(C(c2ccccc2)c2ccccc2)CC1 | > 100 | > 100 | > 100 | 98.7 | > 100 | > 100 | > 100 |  |  |  |  |  |  |  |  | 
